pIC50: −log10 of the molar value. Calls of active or inactive are those of the source. The rule behind the calls is not given here.
Tests used:
[1] = Half life in CD-1 mouse at 15 mg/kg, iv measured up to 24 hrs by LC-MS/MS analysis; format: ADME, organism-based; conditions: in vivo
CT26 [2] = assay: Antitumor activity against mouse CT26 cells implanted in BALB/c mouse assessed as increase in cleaved PARP level at 140 mg/kg, po administered for 3 days; format: functional, organism-based; conditions: time 3.0 day
MIA PaCa-2 [3] = assay: Cytotoxicity against human MIA PaCa-2 cells assessed as cell death up to 1 uM incubated for 6 days in presence of NAC; format: functional, cell-based; conditions: time 6.0 day
[4] = Drug concentration in mouse liver at 30 mg/kg, po measured at 7 hrs; format: ADME, organism-based; conditions: read-out: Ct
HCT-116 [5] = assay: Cytotoxicity against human HCT-116 cells assessed as cell death up to 1 uM incubated for 6 days in presence of NAC; format: functional, cell-based; conditions: time 6.0 day
HCT-116 [6] = assay: Induction of ferroptosis in human HCT-116 cells assessed as cell death at up to 1 uM in presence of […]; format: functional, cell-based
HCT-116 [7] = assay: Induction of necroptosis in human HCT-116 cells assessed as increase in p-RIP3 level at 10 uM incubated for 1 hr by Western blot analysis; format: functional, cell-based
HCT-116 [8] = assay: Synergistic antiproliferative activity against human HCT-116 cells assessed as inhibition of colony formation at up to 1 uM incubated for 6 days in presence of napabucasin; format: functional, cell-based; conditions: time 6.0 day
[9] = AUC in CD-1 mouse at 15 mg/kg, iv measured up to 24 hrs by LC-MS/MS analysis; format: ADME, organism-based; conditions: in vivo
[10] = AUC (0 to infinity) in CD-1 mouse at 15 mg/kg, iv measured up to 24 hrs by LC-MS/MS analysis; format: ADME, organism-based; conditions: in vivo
MIA PaCa-2 [11] = assay: Induction of ferroptosis in human MIA PaCa-2 cells assessed as cell death at up to 1 uM in presence of ferrostatin-1; format: functional, cell-based
HCT-116 [12] = assay: Induction of apoptosis in human HCT-116 cells assessed as increase in clonogenic survival up to 1 uM incubated for 6 days in presence of necrostatin-1 by crystal violet staining based analysis; format: functional, cell-based; conditions: time 6.0 day
MIA PaCa-2 [13] = assay: Induction of apoptosis in human MIA PaCa-2 cells assessed as upregulation of caspase 3 level at 10 uM measured for 48 hrs by Western blot analysis; format: functional, cell-based
BXPC-3 = assay: Induction of apoptosis in human BXPC-3 cells assessed as increase in clonogenic survival up to 0.5 uM incubated for 6 days in presence of Z-VAD-FMK by crystal violet staining based analysis; format: functional, cell-based; conditions: time 6.0 day
[14] = Half life in CD-1 mouse at 30 mg/kg, po measured up to 24 hrs by LC-MS/MS analysis; format: ADME, organism-based; conditions: in vivo
HCT-116 [15] = assay: Induction of ferroptosis in human HCT-116 cells at up to 1 uM in presence of erastin; format: functional, cell-based
HCT-116 [16] = assay: Synergistic antiproliferative activity against human HCT-116 cells assessed as inhibition of colony formation at up to 1 uM incubated for 6 days in presence of LY2603618; format: functional, cell-based; conditions: time 6.0 day
KPC2 = assay: Synergistic antiproliferative activity against mouse KPC2 cells assessed as inhibition of colony formation at up to 1 uM incubated for 6 days in presence of celecoxib; format: functional, cell-based; conditions: time 6.0 day
MIA PaCa-2 [17] = assay: Synergistic antiproliferative activity against human MIA PaCa-2 cells assessed as inhibition of colony formation at up to 1 uM in presence of ZnCl2; format: functional, cell-based
MIA PaCa-2 [18] = assay: Induction of ferroptosis in human MIA PaCa-2 cells assessed as cell death at up to 1 uM in presence of […]; format: functional, cell-based
[19] = Drug concentration in mouse kidney at 15 mg/kg, iv measured at 7 hrs; format: ADME, organism-based; conditions: read-out: Ct
MIA PaCa-2 [20] = assay: Induction of apoptosis in human MIA PaCa-2 cells assessed as increase in clonogenic survival up to 0.5 uM incubated for 6 days in presence of necrostatin-1 by crystal violet staining based analysis; format: functional, cell-based; conditions: time 6.0 day
HCT-116 [21] = assay: Synergistic antiproliferative activity against human HCT-116 cells assessed as inhibition of colony formation at up to 1 uM incubated for 6 days in presence of rofecoxib; format: functional, cell-based; conditions: time 6.0 day
CT26 [22] = assay: Antitumor activity against mouse CT26 cells implanted in BALB/c mouse assessed as increase in cleaved PARP level at 50 mg/kg, po measured after 14 days; format: functional, organism-based; conditions: time 14.0 day
HCT-116 [23] = assay: Induction of ferroptosis in human HCT-116 cells assessed as change in GPX4 level at 5 to 10 uM incubated for 18 hrs by Western blot analysis; format: functional, cell-based; conditions: dose 5-10 µM
[24] = Drug concentration in mouse plasma at 30 mg/kg, po measured at 7 hrs; format: ADME, organism-based
[25] = Toxicity in BALB/c mouse assessed as colon damage at 20 mg/kg, po measured after 29 days by H and E staining based analysis; format: organism-based; conditions: in vivo, 696 h, time 29 day
MIA PaCa-2 [26] = assay: Synergistic antiproliferative activity against human MIA PaCa-2 cells assessed as inhibition of colony formation at up to 1 uM incubated for 6 days in presence of lumira-coxib; format: functional, cell-based; conditions: time 6.0 day
[27] = Toxicity in C57BL/6 mouse assessed as body weight loss at 20 to 40 mg/kg, ip administered for 28 days; format: organism-based; conditions: in vivo, 672 h, dose 20-40 mg/kg, time 28 day
[28] = Oral bioavailability in CD-1 mouse at 30 mg/kg measured up to 24 hrs by LC-MS/MS analysis; format: ADME, organism-based; conditions: in vivo
[29] = Toxicity in BALB/c mouse assessed as lung damage at 20 mg/kg, po measured after 29 days by H and E staining based analysis; format: organism-based; conditions: in vivo, 696 h, time 29 day
[30] = Cmax in CD-1 mouse at 15 mg/kg, iv measured up to 24 hrs by LC-MS/MS analysis; format: ADME, organism-based; conditions: in vivo
[31] = Clearance in CD-1 mouse at 15 mg/kg, iv measured up to 24 hrs by LC-MS/MS analysis; format: ADME, organism-based; conditions: in vivo
HCT-116 [32] = assay: Synergistic antiproliferative activity against human HCT-116 cells assessed as inhibition of colony formation at up to 1 uM in presence of CuSO4; format: functional, cell-based
CT26 [33] = assay: Synergistic antiproliferative activity against mouse CT26 cells at 0.01 to 3 uM in presence of MRTX1133; format: functional, cell-based; conditions: dose 0.01-3 µM
MIA PaCa-2 [34] = assay: Induction of apoptosis in human MIA PaCa-2 cells assessed as upregulation of caspase 9 level at 10 uM measured for 48 hrs by Western blot analysis; format: functional, cell-based
HCT-116 [35] = assay: Induction of autophagy in human HCT-116 cells assessed as cell death at up to 1 uM incubated for 6 days in presence of bafilomycin-A1; format: functional, cell-based; conditions: time 6.0 day
MIA PaCa-2 [36] = assay: Induction of apoptosis in human MIA PaCa-2 cells assessed as upregulation of cleaved PARP level at 10 uM measured for 48 hrs by Western blot analysis; format: functional, cell-based
HCT-116 [37] = assay: Synergistic antiproliferative activity against human HCT-116 cells assessed as inhibition of colony formation at up to 1 uM incubated for 6 days in presence of CC-115; format: functional, cell-based; conditions: time 6.0 day
MIA PaCa-2 [38] = assay: Induction of apoptosis in human MIA PaCa-2 cells assessed as increase in clonogenic survival up to 0.5 uM incubated for 6 days in presence of Z-VAD-FMK by crystal violet staining based analysis; format: functional, cell-based; conditions: time 6.0 day
Panc02 = assay: Cytotoxicity against mouse Panc02 cells by MTT assay; format: functional, cell-based

N[C@@H]1[C@H]2CN(c3cnc(C(=O)Nc4cc(F)cc5cccnc45)cn3)C[C@@H]12
half-life [1]: 3 h | Activity (CT26 [2]): Active | Activity (MIA PaCa-2 [3]): Active | concentration at 7 h [4]: 5530 ng/g | Activity (HCT-116 [5]): Active | Activity (HCT-116 [6]): inactive | Activity (HCT-116 [7]): Active | Activity (HCT-116 [8]): Active | AUC at 24 h [9]: 3420 ng·h/mL | AUC(0-inf) [10]: 3450 ng·h/mL | Activity (MIA PaCa-2 [11]): inactive | Activity (HCT-116 [12]): Active | Activity (MIA PaCa-2 [13]): Active | Activity (BXPC-3): Active | half-life [14]: 3.1 h | Activity (HCT-116 [15]): Active | Activity (HCT-116 [16]): Active | Activity (KPC2): Active | Activity (MIA PaCa-2 [17]): Active | Activity (MIA PaCa-2 [18]): inactive | concentration at 7 h [19]: 2690 ng/g | Activity (MIA PaCa-2 [20]): Active | Activity (HCT-116 [21]): Active | Activity (CT26 [22]): Active | Activity (HCT-116 [23]): Active | concentration at 7 h [24]: 293 ng/mL | Activity [25]: Non-toxic | Activity (MIA PaCa-2 [26]): Active | Activity [27]: Non-toxic | bioavailability [28]: 55.3% | Activity [29]: Non-toxic | Cmax [30]: 1620 ng/mL | clearance [31]: 72.5 mL/min/kg | Activity (HCT-116 [32]): Active | Activity (CT26 [33]): Active | Activity (MIA PaCa-2 [34]): Active | Activity (HCT-116 [35]): Active | Activity (MIA PaCa-2 [36]): Active | Activity (HCT-116 [37]): Active | Activity (MIA PaCa-2 [38]): Active | pIC50 (Panc02): 5.10

C[C@@H]1OCC2(CCN(c3cnc(C(=O)Nc4cc(F)cc5cccnc45)cn3)CC2)[C@@H]1N
half-life [1]: 2.8 h | Activity (MIA PaCa-2 [3]): Active | Activity (HCT-116 [5]): Active | Activity (HCT-116 [6]): inactive | Activity (HCT-116 [7]): Active | Activity (HCT-116 [8]): Active | AUC at 24 h [9]: 6010 ng·h/mL | AUC(0-inf) [10]: 6090 ng·h/mL | Activity (MIA PaCa-2 [11]): inactive | Activity (HCT-116 [12]): Active | Activity (MIA PaCa-2 [13]): Active | Activity (BXPC-3): Active | half-life [14]: 4.9 h | Activity (HCT-116 [15]): Active | Activity (HCT-116 [16]): Active | Activity (KPC2): Active | Activity (MIA PaCa-2 [17]): Active | Activity (MIA PaCa-2 [18]): inactive | Activity (MIA PaCa-2 [20]): Active | Activity (HCT-116 [21]): Active | Activity (HCT-116 [23]): Active | Activity (MIA PaCa-2 [26]): Active | Activity [27]: Non-toxic | bioavailability [28]: 55.2% | Cmax [30]: 3460 ng/mL | clearance [31]: 37.7 mL/min/kg | Activity (HCT-116 [32]): Active | Activity (CT26 [33]): Active | Activity (MIA PaCa-2 [34]): Active | Activity (HCT-116 [35]): Active | Activity (MIA PaCa-2 [36]): Active | Activity (HCT-116 [37]): Active | Activity (MIA PaCa-2 [38]): Active | pIC50 (Panc02): 5.68

Source: ChEMBL document CHEMBL6109128, “Copper-KRAS-COX2 Axis: A Therapeutic Vulnerability in Pancreatic Cancer” (J Med Chem, 2025)
